Reference: patent US7704953B2, “Phage displayed cell binding peptides” (MDRNA, Inc., priority 2006, dated 2010)

Legend:
antibody AB167 [1] = test: Phage ELISA for TAG suppression (binding of antibody AB167); set-up: species or system rabbit; conditions: 10^8 pfu/ml; relative to clone B1 grown in the same host; /B = nonsuppressor BLT5403, /C = suppressor C600CR; average of triplicate wells
Description: (§1) Phage purified by double precipitation with PEG was diluted in Dulbecco's PBS (DPBS) and applied to wells of a 96-well Maxisorp® plate (Nalge Nunc International®, Rochester, N.Y.) and allowed to bind for one hour followed by three washes with 400 μl of OptEIA wash buffer (BD Biosciences) and blocking with 1% BSA in TBS-Tween (0.1%). All washes were done at room temperature with slow orbital shaking. Antibody AB 167 diluted 1:500 was applied in PBS-T containing 1% BSA and allowed to bind for one hour at room temperature then washed five times with 400 μl of wash buffer. Bound antibody was detected with the secondary antibody goat anti-rabbit HRP diluted 1:1000 in PBS-T with 1% BSA applied for one hour and washed five times with 400 μl of wash buffer followed by development with OptEIA reagents according to the manufacturer's directions. Means were compared using Student's t-test.
Growth of phage containing the insert encoding Trp cage TC5b in the host BLT5403 which limits expression to 5 to 10 copies of the peptide, produced clones displaying the expected sequence […] (SEQ ID NO: 530) with a low frequency of mutations (one out of twelve sequenced clones). […] Some of the mutant clones contained the TAG stop codon within the Trp cage sequence and were expected to result in the display of truncated peptides. Two nonsense mutants, E7 which contained a TAG stop codon at Tyr-3 of the Trp cage sequence NL*IQWLKDGGPSSGRPPPS (SEQ ID NOs: 588 and 534, respectively in order of appearance) and E12 which contained a TAG stop codon at Trp-6 of the Trp cage sequence NLYIQ*LKDGGPSSGRPPPS (SEQ ID NOs: 535 and 553, respectively in order of appearance), were chosen to test the effectiveness of the suppressor host C600CR by ELISA. […] Since AB167 is a polyclonal antibody, some binding to the truncated peptides of E7 and E12 was expected with possibly greater binding to E12 because it is three residues longer than E7.
Binding of antibody AB167 to T7Select® 10-3b phage grown in the nonsuppressor host BLT5403 (B) was compared with binding to phage grown in the suppressor host C600CR (C). […] Binding of the antibody to phage mutants E7 and E12 displaying truncated Trp cages grown in B (E7/B and E12/B, respectively) was related to antibody binding to phage clone B I displaying the full length Trp cage on a percentage basis. The phage mutants grown in C (E7/C and E12/C) were likewise related to B1 grown in C. Results represent the average of triplicate wells.

16HBE140- cells = test: Phage ELISA binding to 16HBE140- cells; format: cell-based, human; conditions: unfixed cells; for OD 450 nm: 10^10 pfu/ml, average of triplicate wells; for Binding to 16HBE140- cells (in words): phage ELISA
Description: Phage binding to 16HBE140- cells was analyzed using confluent cells grown with DMEM-F12 complete medium in 96-well collagen coated plates (BD Biosciences, San Diego, Calif.) at 37° C. in 5% CO2. The cells were washed with DPBS and phage diluted in DPBS containing 1% BSA (DPBS-BSA) were applied in 100 μl. Bound phage were detected using primary antibody (mouse IgG T7 tail fiber monoclonal antibody diluted 1:2000 in DPBS-BSA) and secondary antibody (goat anti-mouse IgG HRP diluted 1:5000 in DPBS-BSA) followed by detection with OptEIA reagents as above.
Binding of phage T7Select®10-3b displaying Trp cage TC5b (Trp cage) was compared to binding of three phage clones selected from the naïve Trp cage library after 3 rounds of panning against the human bronchial epithelial cell line 16HBE140-. Results represent the average of triplicate wells.

HepG2 cells [2] = test: Fluorescence microscopy with FITC-labeled phage on HepG2 cells; format: cell-based, human; conditions: ~e9 pfu per well, 1 hr, visualized at 200×
Description: The phage microscopy protocol is as follows:
1. Grow HepG2 cells on collagen I coated glass chamber slides to 100% confluence.
2. On the day of the experiment, wash cells 3 to 5 times ˜300 μl/well of PBS.
3. Fix with 100 μl/well of methanol (chilled at −20C) for 7 min at room temperature.
4. Wash 3-5 times with ˜300 μl/well of PBS.
5. Apply 10 μl/well (˜e9 pfu) of FITC-labeled M13 phage.
6. Incubate on a rotating platform at room temperature for 1 hr in the dark.
7. Wash 5 times with ˜300 μl/well of PBS.
8. Remove chambers, dry, mount, and visualize at 200×.
(§2) Staining by the positive controls was less intense than NLQEFLF (SEQ ID NO: 61).

HepG2 cells [3] = test: Cell-based ELISA for cell-specific binding, HepG2; set-up: species or system human; conditions: methanol-fixed HepG2 cells, M13 PHD-7 phage clones
Description: (§3) For screening cell-specific binding phage display peptides, confluent HepG2 or HUVEC cells grown in DMEM-F12-complete in a 96-well plate fixed with methanol, stored at 4° C. Applied 250 μl/well of diluted phage and incubated in wells for 1 hour while shaking. Stopped reactions with 75 ul of 1M HCl after ˜5-7 min, read at 450 nm.
(§4) Representative display peptides isolated from panning against either HepG2 or HUVEC cells with the Trp cage and M13 libraries were tested for cell-specific binding. The peptide having the amino acids sequence SIGYLPL (SEQ ID NO: 532) and the peptide having the amino acid sequence LTAELTP (SEQ ID NO: 533) served as positive HepG2 binding controls. The 7-mer display peptide represented by the amino acid sequence HPQ served as a negative binding control.
as §2

HUVEC cells = test: Cell-based ELISA for cell-specific binding, HUVEC; set-up: species or system human; conditions: M13 PHD-7 phage clone
Description: as §3, §4, §2

antibody AB167 [4] = test: Western analysis of phage lysates with antibody AB167; format: binding, rabbit; conditions: SDS-PAGE separated proteins, AB167 diluted 1:2500
Description: For Western analysis, phage were purified by double precipitation with PEG and denatured by boiling in Tris-Glycine SDS sample buffer (2×) with 1% beta-mercaptoethanol (BME). A 10 μl sample containing 1×10^11 pfu/ml was loaded into a well of a 1 mm 4% to 20% Tris-Glycine gel (Invitrogen®) and electrophoresed for 1.5 hours at 150 volts (constant voltage) in Tris-Glycine SDS running buffer. The separated proteins were transferred to a PVDF membrane (1.5 hours at room temperature) and blocked with 3% non-fat dry milk in TBS-T (0.05%) for one hour at room temperature. The membrane was probed for two hours with antibody AB167 diluted 1:2500 at room temperature followed by three five minute washes with TBS-T. Goat anti-rabbit HRP diluted 1:5000 was used to detect the bound AB167 antibody. It was incubated with the membrane for one hour at room temperature followed by four 10 minute washes and the membrane was developed with SuperSignal West Femto Maximum Sensitivity Substrate® (Pierce®) according to the manufacturer's instructions. MagicMark XP Western Protein Standards were used for size reference standards.
For the Western blot analysis of Trp cage TC5b expressed with the 10-3b T7Select® vector, proteins in lysates from phage infected cells were separated by SDS-PAGE in Coomasie stained gel. […]

antibody AB167 [5] = test: Phage ELISA with antibody AB167 for display of Trp cage TC5b on the phage capsid; format: binding, rabbit; conditions: 1×10^6, 1×10^7 and 1×10^8 phage per well
Description: as §1
Two negative controls were used. One was the 10-3b vector with no insert and the other was the 10-3b vector containing the S-Tag. All phage were incubated with the AB167 antibody at 1×10^6, 1×10^7 and 1×10^8 phage per well for the ELISA.

| Substance | Percent antibody binding (antibody AB167 [1]) [%] | OD 450 nm (16HBE140- cells) | also measured |
| --- | --- | --- | --- |
| NL*IQWLKDGGPSSGRPPPS [E7/B] | 32 |  |  |
| DRYPQWLNGMGPSSGRPPPN* [624-55-20] |  | 0.22 |  |
| NLYIQWLKDGGPSSGRPPPS [B1/C] | 100 |  |  |
| NLYIQ*LKDGGPSSGRPPPS [E12/B] | 50 |  |  |
| NLQEFLF [M13 PHD-7 phage display peptide isolated by panning against HepG2 cells] |  |  | Binding/staining of FITC-labeled phage on methanol-fixed HepG2 cells (HepG2 cells [2]): bound; Binding to HepG2 cells (cell-based ELISA) (HepG2 cells [3]): HepG2 specific binding; Binding to HUVEC cells (cell-based ELISA) (HUVEC cells): did not bind |
| DAYPQWLFTPGPTSGRPPPL* [624-55-21] |  | 0.15 |  |
| DPYAQWLQSMGPHSGRPPPR* [624-55-29] |  | 0.39 | Binding to 16HBE140- cells (in words) (16HBE140- cells): demonstrated binding |
| NL*IQWLKDGGPSSGRPPPS [E7/C] | 65 |  |  |
| NLYIQWLKDGGPSSGRPPPS [10-3b/TC5b, reference compound] |  | 0.22 | Binding to 16HBE140- cells (in words) (16HBE140- cells): low; Binding of antibody AB167 to protein of phage lysate (Western blot) (antibody AB167 [4]): contained a protein that bound the Trp cage specific antibody AB167; ELISA signal with antibody AB167 (antibody AB167 [5]): signal was detected |
| NLYIQ*LKDGGPSSGRPPPS [E12/C] | 62 |  |  |
